Experiments:
Format in all cases: functional
Monkey [1] = experiment: The compound was tested in vivo for the iron clearing activity against non -iron-overloaded Cebus apella monkey at a concentration of 150 uM/Kg
Monkey [2] = experiment: The compound was tested in vivo for the iron clearing activity against non -iron-overloaded Cebus apella monkey at a concentration of 150 uM/Kg, with distilled water
Monkey [3] = experiment: The compound was tested in vivo for the iron clearing activity against non -iron-overloaded Cebus apella monkey at a concentration of 300 uM/Kg
Monkey [4] = experiment: The compound was tested in vivo for the iron clearing activity against non -iron-overloaded Cebus apella monkey at a concentration of 300 uM/Kg with distilled water
Rattus norvegicus [5] = experiment: The compound was tested in vivo for the iron clearing activity against non-iron-overloaded-bile duct cannulated rat, at a concentration of 150 uM/Kg
Monkey [6] = experiment: The compound was tested in vivo for the iron clearing activity against non -iron-overloaded Cebus apella monkey at a concentration of 300 uM/Kg.
Monkey [7] = experiment: The compound was tested in vivo for the iron clearing activity against non-iron-overloaded Cebus apella monkey, values in parentheses indicate the % breakdown of iron excreted in stool and urine, at a concentration of 75 uM/Kg.
Monkey [8] = experiment: The compound was tested in vivo for the iron clearing activity against non-iron-overloaded Cebus apella monkey, values in parentheses indicate the % breakdown of iron excreted in stool and urine, at a concentration of 300 uM/Kg.
Monkey [9] = experiment: The compound was tested in vivo for the iron clearing activity against non -iron-overloaded Cebus apella monkey at a concentration of 150 uM/Kg.
Rattus norvegicus [10] = experiment: The compound was tested in vivo for the iron clearing activity against non-iron-overloaded-bile duct cannulated rat, at a concentration of 150 uM/Kg(po)
Monkey [11] = experiment: The compound was tested in vivo for the iron clearing activity against non -iron-overloaded Cebus apella monkey at a concentration of 75 uM/Kg

Structure (SMILES): O=C(O)[C@H]1CSC(c2ccc(O)cc2O)=N1
- Efficiency (Monkey [1]): 4.2%
- Efficiency (Monkey [2]): 5.6%
- Efficiency (Monkey [3]): 5.6%
- Efficiency (Monkey [4]): 4.8%
- Efficiency (Rattus norvegicus [5]): 2.4%

Structure (SMILES): O=C(O)[C@H]1CSC(c2ncccc2O)=N1
- Efficiency (Monkey [1]): 4.8%
- Efficiency (Rattus norvegicus [5]): 2.4%
- Efficiency (Monkey [6]): 8%

Structure (SMILES): O=C(O)[C@H]1CSC(c2ccccc2O)=N1
- Efficiency (Rattus norvegicus [5]): 1.4%
- Efficiency (Monkey [6]): 12.4%

Structure (SMILES): C[C@]1(C(=O)O)CSC(c2ccccc2O)=N1
- Efficiency (Monkey [7]): 21.5%
- Efficiency (Rattus norvegicus [5]): 2.7%
- Efficiency (Monkey [6]): 13.1%

Structure (SMILES): O=C(O)[C@@H]1CSC(c2ncccc2O)=N1
- Efficiency (Monkey [1]): 0.5%
- Efficiency (Rattus norvegicus [5]): 3.9%

Structure (SMILES): O=C(O)[C@@H]1CSC(c2ccccc2O)=N1
- Efficiency (Monkey [8]): 8.2%
- Efficiency (Rattus norvegicus [5]): 4.2%

Structure (SMILES): O=C(O)[C@@H]1CSC(c2ccc(O)cc2O)=N1
- Efficiency (Monkey [9]): 1.7%
- Efficiency (Rattus norvegicus [10]): <0.5%

Structure (SMILES): C[C@]1(C(=O)O)CSC(c2ccc(O)cc2O)=N1 [DEFERITRIN]
- Efficiency (Monkey [9]): 13.4%
- Efficiency (Monkey [11]): 17.7%
- Efficiency (Rattus norvegicus [5]): <0.5%

Structure (SMILES): C[C@]1(C(=O)O)CSC(c2ncccc2O)=N1 [DESFERRITHIOCIN]
- Efficiency (Monkey [1]): 16.1%
- Efficiency (Rattus norvegicus [5]): 5.5%
